Measured values as given in patent publication US5192799A, “Coumaran group containing amine compounds and their acid addition salts and quaternary ammonium salts and the use thereof as anti arrhythmic agents and as psychotropic agents” (Mitsui Petrochemical Industries, Ltd., priority 1987, dated 1993).

Legend:
[1] = tested on: Purkinje fiber; test: Effect on APD (APD75, field-stimulated right ventricular free wall); assay type: cell-based, adult mongrel dog; conditions: 20 minutes incubation, 37° C., 1 Hz, control before drug = 100%; for activation at 3 µg/mL / activation at 1 µg/mL / activation at 10 µg/mL: Canis lupus familiaris, purkinje, 20 min, read-out: APD75 % (percent change in APD75)
Experimental: The pharmacological effects of the compounds of this invention represented by general formula (1) were studied. By using the heart of an adult mongrel dog, the activity of the compounds of general formula (1) were tested in vitro and in vivo. The heart of an anaethetized dog was extracted and suspended in a chamber at 37° C. in Tyrode's solution. The drug was added to Tyrode's solution being perfused through the heart specimen, and electrophysiological effects of the drug on cardiac action potential duration (APD) and maximum rate of depolarization were studied. An anaethetized dog was cut open at the chest.
An adult mongrel dog was anaethetized with intravenous administration of pentobarbital, 30 mg/kg. The heart was quickly removed, and the right ventricular free wall was dissected in the Tyrode's solution. The right ventricular free wall was fixed within an incubator at 37° C., and field stimulation at 1 Hz was carried out. Intracellular potentials were measured by piercing glass microelectrodes (10-20 megaohms) into the Purkinje fiber and the wave form of cardiac action potential drawn on an oscilloBraun tube via an amplifier was analyzed by a computer. Value of APD was obtained at 75% of full repolarization (APD75). The drug was added to Tyrode's solution (20 ml) perfused through the specimen. The effect of the drug was expressed by a percent change in APD75 after incubation for 20 minutes with the control value of APD before application of the drug being taken as 100%.

[2] = in vivo; conditions: mouse, in vivo, po, LD50 p.o., p.o., 24 hours after administration, male ddY mice
Experimental: By using male ddY-strain 5-week old mice (3 to 4 per group), the compounds of general formula (1) were each administered orally or intraperitoneally as a solution in saline or as a suspension in methyl cellulose, and 24 hours after the administration, the toxicity of the compounds was evaluated.

[3] = tested on: right ventricle (effective refractory period); test: Activity on ERP of the right ventricle; assay type: in vivo, adult mongrel dog; conditions: Canis lupus familiaris, iv, ERP before drug = 100%, read-out: ERP % (ERP prolonging activity); for change in vivo at 0.1 mg/kg: 0.1 mg/kg i.v.; for change in vivo at 0.3 mg/kg: 0.3 mg/kg i.v.; for change in vivo at 1 mg/kg: 1 mg/kg i.v.; for change in vivo at 3 mg/kg: 3 mg/kg i.v.
Experimental: The pharmacological effects of the compounds of this invention represented by general formula (1) were studied. By using the heart of an adult mongrel dog, the activity of the compounds of general formula (1) were tested in vitro and in vivo. The heart of an anaethetized dog was extracted and suspended in a chamber at 37° C. in Tyrode's solution. The drug was added to Tyrode's solution being perfused through the heart specimen, and electrophysiological effects of the drug on cardiac action potential duration (APD) and maximum rate of depolarization were studied. An anaethetized dog was cut open at the chest. […] In an anaethetized and open-chested adult mongrel dug, a silver-silver chloride electrode was sutured to the right ventricle, and ventricular pacing was performed at a stimulation interval of 400 msec for a duration time of 4 msec, twice diastolic threshold. Then, a small amount of alcohol was injected through the sinus artery to extinguish the pacemaker activity, and under ventricular pacing, ERP was measured. Ten stimulations were taken as one train, and the interval between trains when the response to the first stimulation disappeared was defined as ERP. […] ERP before drug administration (intravenously or intraduodenally) was taken as 100%, and ERP prolonging activity of the drugs was expressed by %.

SMILES | activation at 3 µg/mL ([1]; dose 3 μg/ml) | activation at 1 µg/mL ([1]; dose 1 μg/ml) | activation at 10 µg/mL ([1]; dose 10 μg/ml) | other results
O=C1COc2cc(OCCCN3CCCC(CO)C3)ccc21 (stereo not shown) [Compound 1214] | 4% |  |  | 
CCCCCCCN(CC)CCCOc1ccc2c(c1)OCC2=O [Compound 100] | 31% | 21% |  | 
CCCC[N+](CCCC)(CCCC)CCCOc1ccc2c(c1)OCC2=O [Compound 293] | 4% | 0% |  | 
O=C1COc2cc(OCCC[n+]3ccc(-c4ccccc4)cc3)ccc21 [Compound 1404] |  |  |  | LD50 at 24 h [2]: > 300 mg/kg
CCCCCCC[N+](CC)(CC)CCCOc1ccc2c(c1OC)OCC2=O [Compound 289] | 8% | 7% |  | 
CCCCCCC[N+](CC)(CC)CCCOc1ccc2c(c1)CCC2 [Compound 770] | 7% | 0% |  | 
CCCCN(CCCOc1ccc2c(c1)OCC2=O)CC(C)C [Compound 128] | 18% | 9% |  | LD50 at 24 h [2]: > 300 mg/kg
CCCCCCC[N+](CC)(CC)CCCOc1cccc2ccc(=O)oc12 [Compound 632] | 44% |  | 18% | LD50 at 24 h [2]: > 300 mg/kg
O=C1COc2cc(OCCCN[C@@H]3C[C@H]4CC[C@@H]3C4)ccc21 (relative stereo) [Compound 168] | 3% | 0% |  | 
CCCCCCCN(CC)CCCOc1ccc2c(c1)OCC2=O [Compound 104] |  |  |  | APD75 % (percent change in APD75) ([1]; dose 1 μg/ml): 21%; APD75 % (percent change in APD75) ([1]; dose 3 μg/ml): 30%
CCCCCCCN(CC)CC(O)COc1ccc2c(c1)OCC2=O (stereo not shown) [Compound 214, 6-[3-(N-ethyl-N-heptylamino)-2-hydroxypropyloxy]coumaran-3-one] | 15% | 15% |  | 
CC(C)NCC(O)c1ccc(NS(C)(=O)=O)cc1 (stereo not shown) [Sotalol, reference compound] |  |  |  | change in vivo at 0.1 mg/kg [3]: 1.7 ± 1.7%; change in vivo at 0.3 mg/kg [3]: 6.7 ± 0.9%; change in vivo at 1 mg/kg [3]: 8.7 ± 1.2%; change in vivo at 3 mg/kg [3]: 15.5 ± 0.5%
CC1CCN(CCCOc2ccc3c(c2)OCC3=O)CC(C)C1 (stereo not shown) [Compound 1194] | 19% | 16% |  | LD50 at 24 h [2]: > 300 mg/kg
CCCCCCC[N+](CC)(CC)CCCOc1ccc2c(c1)OC(C)(CC)CC2=O (stereo not shown) [Compound 820] | 5% | 4% |  | 
CCCCCCC[N+](CC)(CC)CC(O)COc1ccc2c(c1)OCC2=O (stereo not shown) [Compound 292] | 25% | 15% | 28% | change in vivo at 0.1 mg/kg [3]: 8%; change in vivo at 0.3 mg/kg [3]: 8%; change in vivo at 1 mg/kg [3]: 8%
CCCCCN(CC)CCCOc1ccc2c(c1)OCC2=O [Compound 108] | 2% | 0% |  | 
CCCCCCC[N+](CC)(CC)CCCOc1ccc2c(C)c(C)c(=O)oc2c1 [Compound 634] | 7% | 4% | 11% | 
CCCCCCC[N+](CC)(CC)CCCOc1ccccc1C=CC(C)=O [Compound 1022] | 11% | 0% | 18% | 
C=CCc1ccccc1OCC(O)C[N+](C)(C)C(C)C (stereo not shown) [Compound 1020] | 14% | 10% | 19% | 
C[C@H]1C[C@H](C)CN(CCCOc2ccc3c(c2)OCC3=O)C1 (relative stereo) [Compound 1129] | 7% |  |  | 
CSC(=NC#N)N(C)CCCOc1ccc2c(c1)OCC2=O [Compound 271] |  |  |  | LD50 at 24 h [2]: > 300 mg/kg
CC[N+]1(CCCOc2ccc3c(c2)OCC3=O)CCCC(C)C1 (stereo not shown) [Compound 1119] | 4% |  |  | 
CS(=O)(=O)Nc1ccc(C2CCN(CCCOc3ccc4c(c3)OCC4=O)CC2)cc1 [Compound 1304] |  |  |  | LD50 at 24 h [2]: > 300 mg/kg

SMILES | activation at 3 µg/mL ([1]; dose 3 μg/ml) | activation at 1 µg/mL ([1]; dose 1 μg/ml) | activation at 10 µg/mL ([1]; dose 10 μg/ml) | other results
CCCCCCC[N+](CC)(CC)CCCOc1ccc2ccc(=O)oc2c1 [Compound 638] | 7% | 0% |  | 
CC1CCN(CCCOc2ccc3c(c2)OCC3=O)C1 (stereo not shown) [Compound 1106] | 8% |  | 13% | 
O=C1COc2cc(OCCCN3CCCC3)ccc21 [Compound 1102] | 6% |  |  | 
O=C1COc2cc(OCCCN3CCCC4CCCCC43)ccc21 (stereo not shown) [Compound 1158] | 10% |  | 13% | LD50 at 24 h [2]: > 300 mg/kg
CC(C)NCC(O)COc1ccc2c(c1)OCC2=O (stereo not shown) [Compound 272] | 8% |  | 10% | 
O=C1COc2cc(OCCCN3CCOCC3)ccc21 [Compound 1166] | 6% | 4% |  | 
CCN(CCCOc1ccc2c(c1)OCC2=O)C12CC3CC(CC(C3)C1)C2 [Compound 172] | 8% | 0% |  | 
O=C1COc2cc(OCCCN3CCCCC3)ccc21 [Compound 1110] |  |  |  | APD75 % (percent change in APD75) ([1]; dose 3 μg/ml): 10%; APD75 % (percent change in APD75) ([1]; dose 10 μg/ml): 20%; LD50 at 24 h [2]: > 300 mg/kg
CCCCCCC[N+](CC)(CC)CCCOc1cccc2c1OCC2=O [Compound 295] |  |  |  | LD50 at 24 h [2]: > 300 mg/kg
CCCN(CCCOc1ccc2c(c1)OCC2=O)CCOC [Compound 180] | 11% | 5% | 15% | 
O=C1COc2cc(OCCCN3CC4CCC(CC4)C3)ccc21 [Compound 1198] | 6% | 4% |  | 
CCCCCCC[N+](CC)(CC)CCCOc1ccc2c(c1)OCC2 [Compound 422] | 3% | 0% |  | 
COCCN(CCCOc1ccc2c(c1)OCC2=O)CCOC [Compound 276] | 12% | 5% | 23% | change in vivo at 0.1 mg/kg [3]: 0%; change in vivo at 0.3 mg/kg [3]: 0%; change in vivo at 1 mg/kg [3]: 7%; change in vivo at 3 mg/kg [3]: 7%
CCCCCCC[N+](CC)(CC)CCCCc1ccc(Cl)cc1 [Clofilium, reference compound] |  |  | 15% | change in vivo at 0.1 mg/kg [3]: 7 ± 1.3%; change in vivo at 0.3 mg/kg [3]: 15.2 ± 2.4%; change in vivo at 1 mg/kg [3]: 22.4 ± 1.6%
O=C1CCc2cc(OCCC[N+]34CN5CN(CN(C5)C3)C4)ccc21 [Compound 1400] |  |  |  | LD50 at 24 h [2]: > 300 mg/kg
CCCCCCCN(CC)CCCOc1ccc2sc(=O)oc2c1 [Compound 952] | 3% | 0% | 7% | 
C=CC[N+](CC)(CCCOc1ccc2c(c1)OCC2=O)C1CCCCC1 (stereo not shown) [Compound 294] | 11% |  | 35% | 
O=C1COc2cc(OCCCN3CCCCC3)ccc21 [Compound 1108] | 7% | 0% |  | APD75 % (percent change in APD75) ([1]; dose 10 μg/ml): 9%
CCCCCCCN(CC)CCCOc1ccc2c(c1)OC(C)(CC)C2C (stereo not shown) [Compound 404] | 4% |  |  | 
CCCN(CCCOc1ccc2c(c1)OCC2=O)CCC(=O)OCC [Compound 281] |  |  |  | LD50 at 24 h [2]: > 300 mg/kg
CCCCN(CCCC)CCOc1ccc2c(c1)OCC2=O [Compound 204] | 7% | 3% | 8% | 
CCCC1CCCCN1CCCOc1ccc2c(c1)OCC2=O (stereo not shown) [Compound 1134] | 9% | 7% |  | 
CCCCCCC[N+](CC)(CC)CCCOc1cc(OC)c2c(c1)OCC2=O [Compound 290] | 11% |  | 35% | 
